{"source": "patent US11166977B2", "about": "“Compositions for treating meibomian gland dysfunction” (ADS THERAPEUTICS LLC, priority 2019, dated 2021)", "key": {"[1]": {"test_system": "Patients with Primary or Recurrent Pterygium", "test": "Phase 2a clinical trial in pterygium patients: ocular symptom and PSLQ questionnaire scores", "type": "in vivo, human", "source_text": "2-HP-β-CD Formulation I was used as vehicle.\nA trend of effects also remained after the stop of treatment at weeks 8, 16, and 24. The other questions didn't generate statistically significant effects.\nThese ocular symptoms are often observed in MGD patients. Scores of these symptoms were graded by patients as part of PSLQ questionnaires."}, "[2]": {"details": "Aqueous solution at 37° C.; concentration of CDs 1.0 × 10^−2M; cited from earlier work"}}}
{"molecule": "2-Hydroxypropyl-beta-cyclodextrin [Formulation 2-HP-β-CD]", "values": [{"measurement": "PSLQ Overall Average Score, Baseline Mean (SD)", "setting": "[1]; Baseline, Modified Intent-to-Treat Population, N = 23", "value": "0.70 (0.66)"}, {"measurement": "PSLQ Average Ocular Symptom Score, Baseline Mean (SD)", "setting": "[1]; Baseline, mITT, N = 23", "value": "0.88 (0.81)"}, {"measurement": "PSLQ Average Quality of Life Impact Score, Baseline Mean (SD)", "setting": "[1]; Baseline, mITT, N = 23", "value": "0.57 (0.92)"}, {"measurement": "PSLQ Average Vision-Related Functioning Score, Baseline Mean (SD)", "setting": "[1]; Baseline, mITT, N = 23", "value": "0.57 (0.80)"}, {"measurement": "PSLQ Average Vision-Related Functioning Score, Change from Baseline Mean (SD)", "setting": "[1]; Week 2, mITT, N = 23", "value": "−0.27 (0.65)"}, {"measurement": "PSLQ Average Vision-Related Functioning Score, Change from Baseline Mean (SD)", "setting": "[1]; Week 4, mITT, N = 23", "value": "−0.48 (0.65)"}, {"measurement": "PSLQ Average Vision-Related Functioning Score, Change from Baseline Mean (SD)", "setting": "[1]; Week 8, mITT, N = 23", "value": "−0.43 (0.62)"}, {"measurement": "PSLQ Average Vision-Related Functioning Score, Change from Baseline Mean (SD)", "setting": "[1]; Week 16, mITT, N = 23", "value": "−0.23 (0.56)"}, {"measurement": "PSLQ Average Vision-Related Functioning Score, Change from Baseline Mean (SD)", "setting": "[1]; Week 24, mITT, N = 23", "value": "−0.11 (1.1)"}, {"measurement": "PSLQ scores compared to the baseline (in words)", "setting": "[1]; human, in vivo", "value": "significant improvements"}]}
{"molecule": "OC[C@H]1O[C@@H]2O[C@H]3[C@H](O)[C@@H](O)[C@@H](O[C@H]4[C@H](O)[C@@H](O)[C@@H](O[C@H]5[C@H](O)[C@@H](O)[C@@H](O[C@H]6[C@H](O)[C@@H](O)[C@@H](O[C@H]7[C@H](O)[C@@H](O)[C@@H](O[C@H]1[C@H](O)[C@H]2O)O[C@@H]7CO)O[C@@H]6CO)O[C@@H]5CO)O[C@@H]4CO)O[C@@H]3CO", "note": "[Alpha-CD, alpha-cyclodextrin]", "values": [{"measurement": "Increase in Absorbance (600 nm) Due to Cholesterol Dissolved by CDs", "setting": "[2]", "value": "zero"}]}
{"molecule": "COCC1O[C@@H]2O[C@@H]3C(COC)O[C@H](O[C@@H]4C(COC)O[C@H](O[C@@H]5C(COC)O[C@H](O[C@@H]6C(COC)O[C@H](O[C@@H]7C(COC)O[C@H](O[C@@H]8C(COC)O[C@H](O[C@H]1C(O)C2OC)C(OC)C8O)C(OC)C7O)C(OC)C6O)C(OC)C5O)C(OC)C4O)C(OC)C3O", "note": "(stereo partly drawn) [DOM-beta-CD, 2,6-Di-O-methyl-beta-cyclodextrin]", "values": [{"measurement": "Increase in Absorbance (600 nm) Due to Cholesterol Dissolved by CDs", "setting": "[2]", "value": "a remarkable increase in absorbance"}]}
{"molecule": "OC[C@H]1O[C@@H]2O[C@H]3[C@H](O)[C@@H](O)[C@@H](O[C@H]4[C@H](O)[C@@H](O)[C@@H](O[C@H]5[C@H](O)[C@@H](O)[C@@H](O[C@H]6[C@H](O)[C@@H](O)[C@@H](O[C@H]7[C@H](O)[C@@H](O)[C@@H](O[C@H]8[C@H](O)[C@@H](O)[C@@H](O[C@H]9[C@H](O)[C@@H](O)[C@@H](O[C@H]1[C@H](O)[C@H]2O)O[C@@H]9CO)O[C@@H]8CO)O[C@@H]7CO)O[C@@H]6CO)O[C@@H]5CO)O[C@@H]4CO)O[C@@H]3CO", "note": "[Gamma-CD, gamma-cyclodextrin]", "values": [{"measurement": "Increase in Absorbance (600 nm) Due to Cholesterol Dissolved by CDs", "setting": "[2]", "value": "zero"}]}
{"molecule": "COC(=O)c1ccc2c(c1)NC(=O)/C2=C(\\Nc1ccc(N(C)C(=O)CN2CCN(C)CC2)cc1)c1ccccc1", "note": "[Nintedanib 0.2%, nintedanib, reference compound]", "values": [{"measurement": "PSLQ scores, Nintedanib 0.2% vs Vehicle (in words)", "setting": "[1]; pterygium patients with dry eye condition", "value": "no statistically significant differences"}]}
